Measurements reported in patent publication US20130289019A1, “METHODS OF TREATING BEHAVIORIAL AND/OR MENTAL DISORDERS” (AMAZING GRACE, INC., priority 2012, published 2013).
Entries after “also recorded” stand apart in the source; their conditions may differ.

What was measured:
Type in all cases: in vivo, rat
[1] = tested on: ACh outflow in the NAcShell and swimming of rats; assay: local fluoxetine infusion in NAcShell: ACh outflow and swim test
[2] = tested on: rats (NAc infusion); assay: swim test scores during bilateral fluoxetine infusion in the NAc
[3] = tested on: rats (basal extracellular ACh in the NAcShell, swim test); assay: chronic systemic fluoxetine: basal extracellular ACh in NAcShell and swim test
[4] = tested on: rats (NAcShell infusion); assay: locomotor activity in the open field after bilateral fluoxetine infusion into NAcShell
[5] = 0.2 mM bilateral in NAc, fluoxetine on Day 2 (Ringer Day 3)
[6] = 0.2 mM bilateral in NAc, fluoxetine on Day 3 (Ringer Day 2)
[7] = 0.2 mM bilateral in NAc, on Day 2 or Day 3 (combined)
[8] = 0.5 mM bilateral in NAc, fluoxetine on Day 2 (Ringer Day 3)
[9] = 0.5 mM bilateral in NAc, fluoxetine on Day 3 (Ringer Day 2)
[10] = 0.5 mM bilateral in NAc, on Day 2 or Day 3 (combined)
[11] = 0.75 mM bilateral in NAc, fluoxetine on Day 2 (Ringer Day 3)
[12] = 0.75 mM bilateral in NAc, fluoxetine on Day 3 (Ringer Day 2)
[13] = 0.75 mM bilateral in NAc, on Day 2 or Day 3 (combined)

CNCCC(Oc1ccc(C(F)(F)F)cc1)c1ccccc1 (centres unmarked) [Fluoxetine]
swimming time greater than during Ringer ([1]; 1.0 mM local infusion in NAcShell, n=8): 18.9% | swimming time during fluoxetine ([1]; 1.0 mM local infusion in NAcShell, n=8, Ringer 277±44 sec): 329 ± 45 s | ACh outflow in the NAcShell, effect in words ([1]; during and following 1.0 mM fluoxetine infusion, vs Ringer infusion or pretest): substantially lower; also recorded: decreases the extracellular level of ACh | immobility in the swim test, effect in words ([1]; unilateral infusion into NAcShell): decreases immobility | Climbing score, FLU [2, 5]: 39 ± 12 | Immobility score, FLU [2, 5]: 66 ± 30 | Swimming score, FLU [2, 5]: 15 ± 17 | Climbing score, FLU [2, 6]: 60 ± 15 | Immobility score, FLU [2, 6]: 45 ± 13 | Swimming score, FLU [2, 6]: 14 ± 8 | Climbing score, FLU [2, 7]: 52 ± 10 | Immobility score, FLU [2, 7]: 53 ± 12 | Swimming score, FLU [2, 7]: 14 ± 7 | Climbing score, FLU [2, 8]: 45 ± 12 | Immobility score, FLU [2, 8]: 68 ± 9 | Swimming score, FLU [2, 8]: 6 ± 3 | Climbing score, FLU [2, 9]: 74 ± 10 | Immobility score, FLU [2, 9]: 39 ± 10 | Swimming score, FLU [2, 9]: 7 ± 6 | Climbing score, FLU [2, 10]: 61 ± 9 | Immobility score, FLU [2, 10]: 51 ± 8 | Swimming score, FLU [2, 10]: 7 ± 3 | Climbing score, FLU [2, 11]: 44 ± 10 | Immobility score, FLU [2, 11]: 62 ± 11 | Swimming score, FLU [2, 11]: 14 ± 7 | Climbing score, FLU [2, 12]: 57 ± 9 | Immobility score, FLU [2, 12]: 53 ± 7 | Swimming score, FLU [2, 12]: 10 ± 4 | Climbing score, FLU [2, 13]: 57 ± 9 | Immobility score, FLU [2, 13]: 53 ± 7 | Swimming score, FLU [2, 13]: 10 ± 4 | immobility in the swim test, effect in words ([2]; bilateral infusion into NAcShell, dose-dependently): decreases immobility | swimming plus climbing scores (total escape efforts) ([3]; following chronic fluoxetine treatment, saline 42±11): 55±7 | basal ACh level in the NAcShell, effect in words ([3]; low dose subcutaneously, daily over 14 days, rats in the forced swimming test): normalizes the chronic elevation in basal ACh level | locomotor activity in the open field, in words [4]: does not affect locomotor activity
